Experimental data reported in ChEMBL document CHEMBL1201862, “PubChem BioAssay data set” (2004).
Each block holds one compound with its values, some of them ahead of it. Activity calls are given as the source filed them.

Assays:
[1] = target: T1, Kappa-type opioid receptor (Homo sapiens, UniProt P41145); assay: SAR analysis of small molecule agonists of the kappa opioid receptor via a luminescent beta-arrestin assay - Set 3. [Related pubchem assays (depositor defined):AID1777, AID1785, AID1786, AID1966, AID2133, AID2136, AID2284, AID2500]; assay type: functional
[2] = target: Intestinal-type alkaline phosphatase (Homo sapiens, UniProt P09923); assay: inhibition of human intestinal alkaline phosphatase – biochemical, dose response (AID 488876); assay type: functional
[3] = target: Intestinal-type alkaline phosphatase (Mus musculus, UniProt P24822); assay: PubChem AID 488785; assay type: functional
[4] = target: T2, RNA-binding protein pos-1 (Caenorhabditis elegans, UniProt G5EF15); assay: inhibitors of POS-1/mex-3 RNA binding, dose response, biochemical, fluorescence polarization (AID 1964);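 note: purified POS-1 fused to maltose binding protein made in E. coli; potency of compounds blocking POS-1 binding to fluorescent RNA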
T2 sequence (G5EF15 whole entry): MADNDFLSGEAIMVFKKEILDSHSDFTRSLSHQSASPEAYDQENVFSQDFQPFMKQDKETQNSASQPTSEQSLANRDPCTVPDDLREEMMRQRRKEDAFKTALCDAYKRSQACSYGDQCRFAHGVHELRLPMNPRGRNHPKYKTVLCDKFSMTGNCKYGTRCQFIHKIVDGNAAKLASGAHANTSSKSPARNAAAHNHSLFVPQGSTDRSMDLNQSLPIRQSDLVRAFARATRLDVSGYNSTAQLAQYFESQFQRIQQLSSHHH

[5] = target: T3, Zinc finger protein mex-5 (Caenorhabditis elegans, UniProt Q9XUB2); assay: MEX-5/TCR-2 RNA interaction inhibitors, dose response, biochemical, C. elegans, fluorescence polarization (AID 1960)
T3 sequence (Q9XUB2 whole entry): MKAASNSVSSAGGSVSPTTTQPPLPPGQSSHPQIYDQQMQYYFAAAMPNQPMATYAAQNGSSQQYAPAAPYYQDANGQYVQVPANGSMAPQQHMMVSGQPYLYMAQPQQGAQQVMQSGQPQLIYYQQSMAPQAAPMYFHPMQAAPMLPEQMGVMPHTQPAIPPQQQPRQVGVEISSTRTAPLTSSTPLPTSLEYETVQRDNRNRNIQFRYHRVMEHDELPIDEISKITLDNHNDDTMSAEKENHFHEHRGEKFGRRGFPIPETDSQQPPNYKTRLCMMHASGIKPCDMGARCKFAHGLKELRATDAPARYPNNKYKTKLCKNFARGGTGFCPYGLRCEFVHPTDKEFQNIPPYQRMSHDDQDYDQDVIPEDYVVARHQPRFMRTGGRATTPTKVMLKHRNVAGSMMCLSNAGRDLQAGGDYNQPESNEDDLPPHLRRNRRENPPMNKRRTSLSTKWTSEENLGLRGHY

[6] = target: T4, Alkaline phosphatase, tissue-nonspecific isozyme (Homo sapiens, UniProt P05186); assay: TNAP enzyme inhibition by screening hits, dose response, selectivity assay for mouse IAP inhibitor project, biochemical, human TNAP, uHTS hits (AID 488906); assay type: functional
T4 sequence (P05186 whole entry): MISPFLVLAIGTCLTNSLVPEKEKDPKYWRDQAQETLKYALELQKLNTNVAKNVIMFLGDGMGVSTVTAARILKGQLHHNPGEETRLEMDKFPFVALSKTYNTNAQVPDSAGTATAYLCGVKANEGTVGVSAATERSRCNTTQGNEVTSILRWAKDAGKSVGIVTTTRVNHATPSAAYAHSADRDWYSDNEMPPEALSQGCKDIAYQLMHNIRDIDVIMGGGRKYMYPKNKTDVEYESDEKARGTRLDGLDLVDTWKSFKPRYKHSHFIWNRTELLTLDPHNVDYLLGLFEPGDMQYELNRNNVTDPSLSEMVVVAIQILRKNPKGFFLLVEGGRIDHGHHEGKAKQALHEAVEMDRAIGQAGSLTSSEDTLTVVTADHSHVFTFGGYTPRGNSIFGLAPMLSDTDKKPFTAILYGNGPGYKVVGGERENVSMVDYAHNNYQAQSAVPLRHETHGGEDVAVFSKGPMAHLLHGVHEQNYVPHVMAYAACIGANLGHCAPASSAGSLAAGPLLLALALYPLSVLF

Large T antigen = Large T antigen (Simian virus 40, UniProt P03070); assay type: functional, Betapolyomavirus macacae;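 note: Confirmatory-stage PubChem screen for compounds that inhibit SV40 T antigen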
[7] = target: FAD-linked sulfhydryl oxidase ALR (Homo sapiens, UniProt P55789); assay: inhibitors of human ALR sulfhydryl oxidase, dose response, biochemical, H2O2 detection, luminescence, cherry-pick (AID 493248)
[8] = target: Peroxisome proliferator-activated receptor gamma/Nuclear receptor coactivator 1 (Homo sapiens, UniProt P37231); assay: (§1) TR-FRET dose response biochemical High Throughput Screening assay for agonists of the steroid receptor coactivator 1 (SRC-1) recruitment by the peroxisome proliferator-activated receptor gamma (PPAR gamma): non-selective agonists. [Related pubchem assays (depositor defined):AID1300, AID1808, AID504735, AID631]; assay type: protein assay
[9] = target: Peroxisome proliferator-activated receptor gamma/Nuclear receptor coactivator 3 (Homo sapiens, UniProt P37231); assay: as §1, with “3 (SRC-3)” for “1 (SRC-1)”, “assays: 1301 (Confirmation screen.), 1048 (Primary screen.)]” for “assays (depositor defined):AID1300, AID1808, AID504735, AID631]”; assay type: functional
[10] = target: Peroxisome proliferator-activated receptor gamma/Nuclear receptor coactivator 2 (Homo sapiens, UniProt P37231); assay: TR-FRET dose response biochemical High Throughput Screening assay for agonists of the steroid receptor coactivator 2 (SRC-2) recruitment by the peroxisome proliferator-activated receptor gamma (PPAR gamma): non-selective agonists. [Related pubchem assays: 1297, 1032 ]; assay type: functional
[11] = target: T5, Delta-type opioid receptor (Homo sapiens, UniProt P41143); assay: DOR antagonists, SAR follow-up, image-based (AID 2357); assay type: functional
Mu-type opioid receptor [12] = target: T6, Mu-type opioid receptor (Homo sapiens, UniProt P35372); assay: HTS Image-Based Screen for Agonists of the MOR Receptor. [Related pubchem assays (depositor defined):AID1777, AID1785, AID1786, AID2133]; assay type: functional
[13] = target: T5, Delta-type opioid receptor; assay: HTS Image-Based Screen for Antagonists of the DOR Receptor. [Related pubchem assays (depositor defined):AID1777, AID1785, AID1786, AID2133]; assay type: functional
[14] = target: T1, Kappa-type opioid receptor; assay: KOR agonist analogs, imaging readout, SAR follow-up, image-based (AID 2359); assay type: functional
Coagulation factor XII = target: T7, Coagulation factor XII (Homo sapiens, UniProt P00748); assay type: functional;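 note: activated factor XIIa alpha cleaving a fluorogenic AMC peptide substrate; inhibitor potency from loss of enzyme activity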
T7 sequence (P00748 whole entry): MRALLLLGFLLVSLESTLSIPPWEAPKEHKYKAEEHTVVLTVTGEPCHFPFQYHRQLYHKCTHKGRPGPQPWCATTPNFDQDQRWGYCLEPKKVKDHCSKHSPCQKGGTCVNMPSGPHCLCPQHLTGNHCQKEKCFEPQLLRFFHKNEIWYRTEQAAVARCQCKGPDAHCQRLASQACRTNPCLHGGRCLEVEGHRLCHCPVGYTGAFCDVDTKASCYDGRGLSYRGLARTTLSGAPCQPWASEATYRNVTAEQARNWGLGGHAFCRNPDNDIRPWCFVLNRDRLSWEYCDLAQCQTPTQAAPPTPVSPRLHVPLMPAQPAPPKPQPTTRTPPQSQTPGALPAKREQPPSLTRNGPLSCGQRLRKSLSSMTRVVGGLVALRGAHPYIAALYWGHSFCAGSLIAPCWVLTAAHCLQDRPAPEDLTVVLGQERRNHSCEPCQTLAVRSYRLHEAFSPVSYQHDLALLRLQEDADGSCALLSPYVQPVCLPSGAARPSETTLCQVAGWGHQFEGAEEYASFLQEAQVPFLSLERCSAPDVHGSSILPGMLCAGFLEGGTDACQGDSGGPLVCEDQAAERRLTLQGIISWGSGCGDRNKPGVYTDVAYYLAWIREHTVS

[15] = target: T1, Kappa-type opioid receptor; assay type: functional
[16] = target: T1, Kappa-type opioid receptor; assay: KOR antagonists by imaging, SAR follow-up, image-based (AID 2348); assay type: functional
[17] = target: T1, Kappa-type opioid receptor; assay: SAR analysis of small molecule agonists of the kappa opioid receptor via a luminescent beta-arrestin assay. [Related pubchem assays (depositor defined):AID1777, AID1786, AID1966, AID2133, AID2136, AID2348, AID2352, AID2357, AID2359, AID2370, AID2420, AID2478, AID2491, AID2492, AID2493, AID2497, AID2498, AID2500, AID449737, AID488822, AID488842]; assay type: functional
[18] = target: T5, Delta-type opioid receptor; assay: DOR agonists, SAR follow-up, image-based (AID 2370); assay type: functional
Mu-type opioid receptor [19] = target: T6, Mu-type opioid receptor; assay: MOR agonists by imaging, SAR follow-up, image-based (AID 2352); assay type: functional
[20] = target: T1, Kappa-type opioid receptor; assay type: functional; remark: listed apart in the source
Mu-type opioid receptor [21] = target: T6, Mu-type opioid receptor; assay: MOR antagonists, SAR follow-up, image-based (AID 2420); assay type: functional;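 note: compounds added before stimulation of receptor with agonist DAMGO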
[22] = target: T5, Delta-type opioid receptor; assay: HTS Image-Based Screen for Agonists of the DOR Receptor. [Related pubchem assays (depositor defined):AID1777, AID1786, AID2133]; assay type: functional
[23] = target: Sphingosine 1-phosphate receptor 1 (Homo sapiens, UniProt P21453); assay: Fluorescence-based counterscreen assay for S1P4 agonists: Cell-based dose response high throughput screening assay to identify agonists of the Sphingosine 1-Phosphate Receptor 1 (S1P1). [Related pubchem assays (depositor defined):AID1509, AID1523, AID1801, AID463107, AID463118, AID463119, AID463122, AID463123, AID463129, AID463225, AID504400, AID504460]; assay type: functional
[24] = target: Sphingosine 1-phosphate receptor 4 (Homo sapiens, UniProt O95977); assay: Fluorescence dose response cell-based high throughput screening assay for agonists of the Sphingosine 1-Phosphate Receptor 4 (S1P4). [Related pubchem assays: 1509 (Primary screen.), 1523 (Confirmation screen in triplicates.)]; assay type: functional
Sequence of Sphingosine 1-phosphate receptor 4 (O95977 whole entry): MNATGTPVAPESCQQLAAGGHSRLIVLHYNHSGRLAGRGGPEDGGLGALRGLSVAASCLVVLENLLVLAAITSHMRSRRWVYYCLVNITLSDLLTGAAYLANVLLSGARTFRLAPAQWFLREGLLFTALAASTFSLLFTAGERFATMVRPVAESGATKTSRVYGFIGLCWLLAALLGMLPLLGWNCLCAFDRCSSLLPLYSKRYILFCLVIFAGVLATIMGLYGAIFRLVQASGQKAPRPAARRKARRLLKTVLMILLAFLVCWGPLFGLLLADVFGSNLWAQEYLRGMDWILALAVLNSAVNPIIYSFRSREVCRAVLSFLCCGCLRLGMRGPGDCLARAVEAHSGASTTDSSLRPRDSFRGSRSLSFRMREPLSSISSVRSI

T5 sequence (P41143 whole entry): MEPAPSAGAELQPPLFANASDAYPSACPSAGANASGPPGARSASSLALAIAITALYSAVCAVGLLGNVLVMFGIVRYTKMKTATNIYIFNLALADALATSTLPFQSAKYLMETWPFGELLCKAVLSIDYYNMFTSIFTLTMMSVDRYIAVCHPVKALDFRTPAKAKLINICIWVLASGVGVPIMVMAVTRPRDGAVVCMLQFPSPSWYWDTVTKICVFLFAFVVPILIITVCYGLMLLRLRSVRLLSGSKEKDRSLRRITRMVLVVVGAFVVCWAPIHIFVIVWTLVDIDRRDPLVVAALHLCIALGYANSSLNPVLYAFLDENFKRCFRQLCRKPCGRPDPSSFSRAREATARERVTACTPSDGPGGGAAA
T1 sequence (P41145 whole entry): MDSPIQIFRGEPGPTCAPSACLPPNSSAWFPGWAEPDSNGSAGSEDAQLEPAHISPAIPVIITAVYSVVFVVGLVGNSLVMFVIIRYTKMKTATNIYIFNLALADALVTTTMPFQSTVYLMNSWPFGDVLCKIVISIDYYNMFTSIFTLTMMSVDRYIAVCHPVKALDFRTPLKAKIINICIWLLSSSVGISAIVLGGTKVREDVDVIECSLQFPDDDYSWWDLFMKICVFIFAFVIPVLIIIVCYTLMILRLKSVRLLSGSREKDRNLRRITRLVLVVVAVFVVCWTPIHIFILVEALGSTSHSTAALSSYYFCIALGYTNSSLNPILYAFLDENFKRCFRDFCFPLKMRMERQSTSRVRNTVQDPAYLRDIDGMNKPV
T6 sequence (P35372 whole entry): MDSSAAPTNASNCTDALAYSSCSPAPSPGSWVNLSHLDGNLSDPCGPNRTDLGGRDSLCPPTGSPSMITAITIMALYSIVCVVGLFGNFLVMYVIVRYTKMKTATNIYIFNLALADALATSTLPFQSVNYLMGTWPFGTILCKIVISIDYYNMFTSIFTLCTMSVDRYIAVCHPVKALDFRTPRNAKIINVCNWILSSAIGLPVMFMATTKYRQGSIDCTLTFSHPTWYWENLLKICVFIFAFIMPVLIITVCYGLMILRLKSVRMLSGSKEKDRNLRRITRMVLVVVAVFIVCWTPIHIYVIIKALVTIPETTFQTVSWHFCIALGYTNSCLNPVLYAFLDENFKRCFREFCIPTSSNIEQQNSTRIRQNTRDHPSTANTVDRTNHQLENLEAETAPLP
Sequence of Large T antigen (P03070 whole entry): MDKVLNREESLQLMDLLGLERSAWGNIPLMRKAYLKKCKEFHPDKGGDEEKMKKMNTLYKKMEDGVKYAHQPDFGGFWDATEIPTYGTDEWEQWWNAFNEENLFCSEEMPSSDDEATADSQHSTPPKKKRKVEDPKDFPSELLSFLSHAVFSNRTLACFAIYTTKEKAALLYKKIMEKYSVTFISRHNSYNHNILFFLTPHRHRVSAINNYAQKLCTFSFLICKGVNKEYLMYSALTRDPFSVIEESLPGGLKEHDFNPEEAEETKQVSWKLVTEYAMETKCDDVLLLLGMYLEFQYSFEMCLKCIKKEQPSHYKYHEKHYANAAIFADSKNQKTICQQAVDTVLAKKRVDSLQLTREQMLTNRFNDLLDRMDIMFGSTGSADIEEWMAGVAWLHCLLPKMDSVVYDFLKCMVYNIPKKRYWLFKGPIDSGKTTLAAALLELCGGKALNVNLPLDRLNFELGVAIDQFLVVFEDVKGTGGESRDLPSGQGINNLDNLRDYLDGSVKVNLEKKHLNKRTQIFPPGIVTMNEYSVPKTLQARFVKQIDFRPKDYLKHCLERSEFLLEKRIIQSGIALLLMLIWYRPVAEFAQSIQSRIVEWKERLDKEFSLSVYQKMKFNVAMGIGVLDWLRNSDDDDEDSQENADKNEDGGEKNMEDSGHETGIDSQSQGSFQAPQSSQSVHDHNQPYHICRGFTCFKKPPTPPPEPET
Sequence of Intestinal-type alkaline phosphatase (Mus musculus, UniProt P24822) (P24822 whole entry, the tested form may be a part): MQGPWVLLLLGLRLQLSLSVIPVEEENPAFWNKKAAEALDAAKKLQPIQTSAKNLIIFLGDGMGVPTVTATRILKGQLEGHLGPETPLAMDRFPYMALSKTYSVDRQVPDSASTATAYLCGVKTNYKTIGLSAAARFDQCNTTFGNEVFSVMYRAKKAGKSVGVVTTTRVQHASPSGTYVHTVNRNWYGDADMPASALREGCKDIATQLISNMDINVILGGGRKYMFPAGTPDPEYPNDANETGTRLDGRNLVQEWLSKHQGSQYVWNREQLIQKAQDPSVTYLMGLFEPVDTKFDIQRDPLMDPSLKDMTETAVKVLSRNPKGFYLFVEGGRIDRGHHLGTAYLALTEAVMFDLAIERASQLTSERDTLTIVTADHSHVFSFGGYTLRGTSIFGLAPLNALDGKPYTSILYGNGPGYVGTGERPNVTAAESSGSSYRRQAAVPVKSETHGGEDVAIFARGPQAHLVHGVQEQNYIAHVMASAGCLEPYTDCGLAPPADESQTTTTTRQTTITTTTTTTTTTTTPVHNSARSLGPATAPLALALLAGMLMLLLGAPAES
Sequence of Sphingosine 1-phosphate receptor 1 (P21453 whole entry): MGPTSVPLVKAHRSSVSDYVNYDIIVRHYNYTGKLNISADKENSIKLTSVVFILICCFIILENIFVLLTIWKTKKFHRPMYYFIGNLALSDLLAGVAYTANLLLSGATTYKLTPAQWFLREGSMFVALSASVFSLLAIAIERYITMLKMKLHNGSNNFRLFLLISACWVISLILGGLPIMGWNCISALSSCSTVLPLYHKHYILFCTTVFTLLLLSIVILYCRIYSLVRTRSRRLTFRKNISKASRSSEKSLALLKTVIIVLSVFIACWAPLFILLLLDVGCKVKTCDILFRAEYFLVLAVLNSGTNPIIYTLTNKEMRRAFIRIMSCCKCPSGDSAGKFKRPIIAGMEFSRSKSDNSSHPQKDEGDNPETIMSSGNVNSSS
Sequence of Intestinal-type alkaline phosphatase (Homo sapiens, UniProt P09923) (P09923 whole entry): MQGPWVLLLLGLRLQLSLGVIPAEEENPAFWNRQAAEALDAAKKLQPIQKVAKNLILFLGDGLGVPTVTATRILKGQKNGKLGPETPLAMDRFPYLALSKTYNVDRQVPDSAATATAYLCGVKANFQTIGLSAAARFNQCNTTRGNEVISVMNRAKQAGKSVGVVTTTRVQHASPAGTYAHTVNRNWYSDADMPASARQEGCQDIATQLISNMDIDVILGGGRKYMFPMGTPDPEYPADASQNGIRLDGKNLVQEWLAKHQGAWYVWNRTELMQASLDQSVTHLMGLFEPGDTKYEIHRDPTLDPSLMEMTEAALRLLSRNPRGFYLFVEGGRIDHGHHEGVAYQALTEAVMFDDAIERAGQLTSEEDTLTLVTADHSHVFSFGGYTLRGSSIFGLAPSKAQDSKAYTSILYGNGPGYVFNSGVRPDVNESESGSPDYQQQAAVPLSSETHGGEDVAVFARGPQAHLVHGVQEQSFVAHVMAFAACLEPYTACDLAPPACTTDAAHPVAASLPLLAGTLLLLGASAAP
Sequence of FAD-linked sulfhydryl oxidase ALR (P55789 whole entry): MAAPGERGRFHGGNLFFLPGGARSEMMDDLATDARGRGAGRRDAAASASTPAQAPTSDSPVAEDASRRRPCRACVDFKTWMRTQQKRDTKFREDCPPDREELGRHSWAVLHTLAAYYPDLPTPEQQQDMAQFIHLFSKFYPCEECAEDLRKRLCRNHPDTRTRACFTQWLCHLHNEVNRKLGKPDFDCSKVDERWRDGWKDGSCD

Structure (SMILES): Cc1c(Cl)c(-c2nnc(S)n2-c2ccccc2)nn1C
AC50 [7]: < 14 nM (active)
EC50 [8]: > 79.4 µM (inactive)
EC50 [9]: > 79.4 µM (not active)
EC50 [10]: > 79.4 µM (not active)

Structure (SMILES): CCNC(=O)NC(=O)C(C)OC(=O)c1c(C)nn(Cc2ccccc2)c1Cl (stereo unspecified)
EC50 [23]: > 49.8 µM (inactive)
EC50 [24]: 49.8 µM (not active)

Further lines, results first:

EC50 [1]: > 20 µM (inactive)
Structure (SMILES): COc1ccc(Cn2c(SCc3ccc(Br)cc3)nnc2-c2ccccn2)cc1

IC50 [2]: > 100 µM (inactive)
IC50 [3]: 5.37 µM (active)
EC50 [4]: 65.8 µM (active)
EC50 [5]: 14.6 µM (active)
IC50 [6]: > 100 µM (inactive)
IC50 (Large T antigen): 20.8 µM (active)
Structure (SMILES): CCOc1ccc(S(=O)(=O)Nc2cc(Sc3nnc[nH]3)c3oc(=O)sc3c2)cc1

IC50 [11]: > 32 µM (inactive)
EC50 (Mu-type opioid receptor [12]): > 32 µM (inactive)
IC50 [13]: > 32 µM (inactive)
EC50 [14]: 168 nM (active)
IC50 (Coagulation factor XII): > 50 µM (inactive)
EC50 [15]: < 500 nM
IC50 [16]: > 32 µM (inactive)
EC50 [17]: 645 nM (active)
EC50 [18]: > 32 µM (inactive)
EC50 (Mu-type opioid receptor [19]): > 32 µM (inactive)
EC50 [20]: 251 nM
IC50 (Mu-type opioid receptor [21]): > 32 µM (inactive)
EC50 [22]: > 32 µM (inactive)
Structure (SMILES): CCC(C)(C(=O)NC1CCCCC1)N(Cc1ccco1)C(=O)c1ccccn1 (stereo unspecified)
